Among the data in ChEMBL document CHEMBL1150902, “Certain norditerpenoid alkaloids and their cardiovascular action” (1998) are Activity values, retold here.

Active and inactive are the calls of the source. The rule behind the calls is not given here.

Test [1] concerns Rattus norvegicus. The test can be described thus: Cardiovascular activity in anesthetized Sprague-Dawley rat assessed as reduction in blood pressure at 200 ug/kg, iv. The format is functional. The arrangement: scale not given: the % may be the effect or the level left.
The test system of test [2] is Rattus norvegicus. In words: Cardiovascular activity in anesthetized Sprague-Dawley rat assessed as reduction in heart rate at 200 ug/kg, iv. The format is functional. Also on record: scale not given: the % may be the effect or the level left.
The test system of test [3] is Rattus norvegicus. The test can be described thus: Cardiovascular activity in anesthetized Sprague-Dawley rat assessed as reduction in heart rat at 400 ug/kg, iv. It counts as functional. Also on record: scale not given: the % may be the effect or the level left.
Test [4] has as its system Rattus norvegicus. The test can be described thus: Cardiovascular activity in anesthetized Sprague-Dawley rat assessed as reduction in blood pressure at 400 ug/kg, iv. It counts as functional. The arrangement: scale not given: the % may be the effect or the level left.
The subject of test [5] is Rattus norvegicus. The test can be described thus: Cardiovascular activity in anesthetized Sprague-Dawley rat assessed as induction of cardiac arrhythmia at 400 ug/kg, iv. It counts as functional, organism-based. Particulars: Heart.
The test system of test [6] is Rattus norvegicus. The test can be described thus: Cardiovascular activity in anesthetized Sprague-Dawley rat assessed as induction of cardiac arrhythmia at 200 ug/kg, iv. The format is functional, organism-based. The conditions noted are these: Heart.
Test [7] concerns Canis familiaris. The test can be described thus: Cardiovascular activity in dog assessed as increase in cardial vagal afferent nerve activity at 150 ug/kg, iv. The format is functional, Canis lupus familiaris.
Test [8] relates to Canis familiaris. The test can be described thus: Cardiovascular activity in dog assessed as decrease in cardial vagal efferent nerve activity at 150 ug/kg, iv. The format is functional, Canis lupus familiaris. Also on record: scale not given: the % may be the effect or the level left.

`CCN1C[C@]2(COC)CC[C@H](OC)[C@]34C1[C@H]([C@H](OC)[C@H]23)[C@@]1(OC(=O)c2ccc(N)cc2)C[C@H](OC)[C@@]2(O)C[C@@H]4[C@@H]1[C@H]2OC(=O)c1ccccc1`: the Activity in the test on Rattus norvegicus [1] stood at 42.4%; with Rattus norvegicus [2] it was 8.4%; in the test with Rattus norvegicus [3] it was 14.8%; in the test with Rattus norvegicus [4] it was 38%.
On to `CCN1C[C@@]2(COC)[C@H]3[C@@H](OC)[C@H]4C1[C@]3([C@@H](OC)C[C@H]2OC(C)=O)[C@@H]1C[C@H]2[C@H](OC(=O)c3ccc(OC)c(OC)c3)[C@@H]1[C@]4(OC(C)=O)C[C@@H]2OC`, for which the outcome in the test on Rattus norvegicus [5] and in the test with Rattus norvegicus [6] was Active.
Regarding `CCN1C[C@]2(COC)CC[C@H](OC)[C@]34C1[C@H](C[C@H]23)[C@H]1C[C@@H](OC)[C@@]2(O)C[C@@H]4[C@@H]1[C@H]2OC(=O)c1ccccc1`, the Activity is reported as 22.6% in the test on Rattus norvegicus [1], 0% in the test with Rattus norvegicus [2], 3% in the test with Rattus norvegicus [3] and 27.6% in the test on Rattus norvegicus [4].
The matching figures for `CCCCCCCCCCCCCCCCCC(=O)O[C@]12C[C@H](OC)[C@H]3C[C@H]([C@@H]1[C@H]3OC(=O)c1ccc(OC)c(OC)c1)[C@@]13C4[C@@H]2[C@H](OC)[C@@H]1[C@](COC)(CN4CC)[C@H](O)C[C@@H]3OC`: 15.3%, 0%, 24.5% and 53.4%.
`CCN1C[C@]2(COC)CC[C@H](OC)[C@]34C1[C@H]([C@H](OC)[C@H]23)[C@@]1(OC(=O)/C=C/c2ccc(O)c(OC)c2)C[C@H](OC)[C@@]2(O)C[C@@H]4[C@@H]1[C@H]2OC(=O)c1ccccc1`: the Activity in the test with Rattus norvegicus [1] is reported as 8.8%; with Rattus norvegicus [2] it was 8.3%; in the test with Rattus norvegicus [3], 8.3%; with Rattus norvegicus [4] it was 10.6%.
`CCN1C[C@]2(OC(=O)c3ccccc3NC(C)=O)CC[C@H](OC)[C@]34C1[C@H](C[C@H]23)[C@@]12C[C@H](OC)[C@H]3C[C@@H]4[C@]1(OCO2)[C@H]3OC`: the Activity in the test with Rattus norvegicus [1] came out at 26%; with Rattus norvegicus [2] it was 5.7%; in the test with Rattus norvegicus [3], 5.6%; in the test on Rattus norvegicus [4] it was 16.4%.
Regarding `CCN1C[C@]2(COC)CC[C@H](OC)[C@]34C1[C@H]([C@H](OC)[C@H]23)[C@@]1(OC(=O)c2cccc3cc5ccccc5cc23)C=C[C@@]2(O)C[C@@H]4[C@@H]1[C@H]2OC(=O)c1ccccc1`, the Activity in the test on Rattus norvegicus [1] was 0%; with Rattus norvegicus [2] it was 3.7%; with Rattus norvegicus [3], 3.8%; in the test with Rattus norvegicus [4], 9.2%.
The matching figures for `CC/C=C\C/C=C\C/C=C\CCCCCCCCC(=O)O[C@]12C[C@H](OC)[C@H]3C[C@H]([C@@H]1[C@H]3OC(=O)c1ccc(OC)c(OC)c1)[C@@]13C4[C@@H]2[C@H](OC)[C@@H]1[C@](COC)(CN4CC)[C@H](O)C[C@@H]3OC`: 30.3%, 8.5%, 24.5% and 53.4%.
The corresponding values for `CCN1C[C@]2(COC)CC[C@H](OC)[C@]34C1[C@H]([C@H](OC)[C@H]23)[C@@]1(OC(=O)c2cccc3cc5ccccc5cc23)C[C@H](OC)[C@@]2(O)C[C@@H]4[C@@H]1[C@H]2OC(=O)c1ccccc1` are 20.8%, 4.2%, 2% and 0%.
The matching figures for `CCN1C[C@@]2(COC)[C@H]3[C@@H](OC)[C@H]4C1[C@]3([C@@H](OC)C[C@H]2OC(C)=O)[C@@H]1C[C@]2(OC(C)=O)[C@@H](OC)C[C@@]4(OC(C)=O)[C@H]1[C@H]2OC(=O)c1ccc(OC)c(OC)c1`: 13.2%, 5.4%, 0% and 0%.
On to `CC[N+]1([O-])C[C@]2(C)CC[C@H](OC)[C@]34C1[C@H]([C@@H](O)[C@H]23)[C@@]1(O)CC[C@H]2C[C@@H]4[C@@H]1C(=O)O2` (stereo not given in full), for which the Activity in the test on Rattus norvegicus [1] is recorded as 28.1%; in the test on Rattus norvegicus [2] it was 18.8%; with Rattus norvegicus [3], 8.9%; with Rattus norvegicus [4] it was 7.6%.
`CCN1C[C@]2(COC)CC[C@H](OC)[C@@]34C1[C@@H](C1=C[C@H](OC)[C@@]5(O)C[C@@H]3[C@@H]1[C@H]5OC(=O)c1ccccc1)[C@H](OC)[C@H]24` [PYRODELPHININE]: the Activity is listed as 23.1% in the test with Rattus norvegicus [1], 7.7% with Rattus norvegicus [2], 8.1% with Rattus norvegicus [3] and 14.3% with Rattus norvegicus [4].
The matching figures for `CC[N+]1([O-])C[C@]2(COC)CC[C@H](OC)[C@]34C1[C@H]([C@H](OC)[C@H]23)[C@@]1(OC(C)=O)C[C@H](OC)[C@@]2(OC(C)=O)C[C@@H]4[C@@H]1[C@H]2OC(=O)c1ccccc1` (stereo not given in full): 0%, 3.8%, 8.7% and 13.4%.
Take `CCN1C[C@]2(OC(=O)c3ccccc3N)CC[C@H](OC)[C@]34C1[C@H](C[C@H]23)[C@@]1(O)C[C@H](OC)[C@H]2C[C@@H]4[C@]1(O)[C@H]2OC`: the Activity was determined as 27.2% with Rattus norvegicus [1]; 40% in the test on Canis familiaris [7]; 12.7% in the test on Rattus norvegicus [2]; 23.5% in the test with Canis familiaris [8]; 14.8% in the test on Rattus norvegicus [3]; 57.6% in the test with Rattus norvegicus [4].
Regarding `CCN1C[C@]2(OC(=O)c3ccccc3N)CC[C@H](OC)[C@]34C1[C@H](C[C@H]23)[C@@]1(OC(C)=O)C[C@H](OC)[C@H]2C[C@@H]4[C@]1(OC(C)=O)[C@H]2OC`, the Activity in the test with Rattus norvegicus [1], in the test on Rattus norvegicus [2], in the test on Rattus norvegicus [3] and in the test on Rattus norvegicus [4] was 0% throughout.
